Laboratory results as given in PubChem BioAssay AID1963830 (Molecular Pharmacology Branch, DTP, NCI, 2024).
pIC50: −log10 of the molar value.

Test system: 922993-354-T-J3-PDC complex spheroid viability
Experiment: Anticancer human tumor 922993-354-T-J3-PDC patient-derived endometrial carcinoma cell line growth inhibition [POLQ]
Details: for pIC50: curve of first compound; for viability, T/C: stronger effect = lower value
Outline: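 Patient-derived tumour cells were co-cultured with HUVEC and mesenchymal stem cells as multicellular spheroids at 37 °C. They were treated with POLQ inhibitors (novobiocin, ART-558, RP6685) alone or combined with other agents. Top concentrations were at or near clinical Cmax (otherwise 10 microM; SN-38 at 1 microM), decreasing in half-log steps.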

[1] = second compound 0.0316 µM, first compound 0.0316 µM
[2] = second compound 0.0316 µM, first compound 0.1 µM
[3] = second compound 0.0316 µM, first compound 0.316 µM
[4] = second compound 0.0316 µM, first compound 1 µM
[5] = second compound 0.1 µM, first compound 0.0316 µM
[6] = second compound 0.1 µM, first compound 0.1 µM
[7] = second compound 0.1 µM, first compound 0.316 µM
[8] = second compound 0.1 µM, first compound 1 µM
[9] = second compound 0.316 µM, first compound 0.0316 µM
[10] = second compound 0.316 µM, first compound 0.1 µM
[11] = second compound 0.316 µM, first compound 0.316 µM
[12] = second compound 0.316 µM, first compound 1 µM
[13] = second compound 1 µM, first compound 0.0316 µM
[14] = second compound 1 µM, first compound 0.1 µM
[15] = second compound 1 µM, first compound 0.316 µM
[16] = second compound 1 µM, first compound 1 µM
[17] = second compound 3.16 µM, first compound 0.0316 µM
[18] = second compound 3.16 µM, first compound 0.1 µM
[19] = second compound 3.16 µM, first compound 0.316 µM
[20] = second compound 3.16 µM, first compound 1 µM
[21] = second compound 10 µM, first compound 0.0316 µM
[22] = second compound 10 µM, first compound 0.1 µM
[23] = second compound 10 µM, first compound 0.316 µM
[24] = second compound 10 µM, first compound 1 µM
[25] = second compound 0.0316 µM, first compound 3.16 µM
[26] = second compound 0.0316 µM, first compound 10 µM
[27] = second compound 0.1 µM, first compound 3.16 µM
[28] = second compound 0.1 µM, first compound 10 µM
[29] = second compound 0.316 µM, first compound 3.16 µM
[30] = second compound 0.316 µM, first compound 10 µM
[31] = second compound 1 µM, first compound 3.16 µM
[32] = second compound 1 µM, first compound 10 µM
[33] = second compound 3.16 µM, first compound 3.16 µM
[34] = second compound 3.16 µM, first compound 10 µM
[35] = second compound 10 µM, first compound 3.16 µM
[36] = second compound 10 µM, first compound 10 µM
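Also: spheroids exposed to the agents for one week.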
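For viability, T/C in this document: 100% = DMSO vehicle control wells.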

For C=CCn1c(=O)c2cnc(Nc3ccc(N4CCN(C)CC4)cc3)nc2n1-c1cccc(C(C)(C)O)n1 + Cc1cccc(N(C)C(=O)C2C(O)CCN2c2nc(C)cc(C(F)(F)F)c2C#N)c1, the pIC50 (second compound 0.0316 µM) was < 6.00, the pIC50 (second compound 0.1 µM) was < 6.00 and the pIC50 (second compound 0.316 µM) was < 6.00. The pIC50 (second compound 1 µM) was < 6.00, the pIC50 (second compound 3.16 µM) was < 6.00 and the pIC50 (second compound 10 µM) was < 6.00. For the same compound, the viability, T/C (second compound 0.0316 µM, first compound 0.00316 µM) was 101%, the viability, T/C (second compound 0.0316 µM, first compound 0.01 µM) was 105% and the viability, T/C [1] was 102%. It also gave a viability, T/C [2] of 101%, a viability, T/C [3] of 105% and a viability, T/C [4] of 102%. It also gave a viability, T/C (second compound 0.1 µM, first compound 0.00316 µM) of 105%, a viability, T/C (second compound 0.1 µM, first compound 0.01 µM) of 104% and a viability, T/C [5] of 99.5%. For the same compound, the viability, T/C [6] was 103%, the viability, T/C [7] was 105% and the viability, T/C [8] was 101%. It also gave a viability, T/C (second compound 0.316 µM, first compound 0.00316 µM) of 103%, a viability, T/C (second compound 0.316 µM, first compound 0.01 µM) of 106% and a viability, T/C [9] of 98.1%. For the same compound, the viability, T/C [10] was 104%, the viability, T/C [11] was 104% and the viability, T/C [12] was 103%. For the same compound, the viability, T/C (second compound 1 µM, first compound 0.00316 µM) was 105%, the viability, T/C (second compound 1 µM, first compound 0.01 µM) was 101% and the viability, T/C [13] was 106%. For the same compound, the viability, T/C [14] was 99.1%, the viability, T/C [15] was 104% and the viability, T/C [16] was 104%. It also gave a viability, T/C (second compound 3.16 µM, first compound 0.00316 µM) of 99.9%, a viability, T/C (second compound 3.16 µM, first compound 0.01 µM) of 101% and a viability, T/C [17] of 100%. For the same compound, the viability, T/C [18] was 101%, the viability, T/C [19] was 104% and the viability, T/C [20] was 99%. For the same compound, the viability, T/C (second compound 10 µM, first compound 0.00316 µM) was 103%, the viability, T/C (second compound 10 µM, first compound 0.01 µM) was 97.1% and the viability, T/C [21] was 98.5%. It also gave a viability, T/C [22] of 97.3%, a viability, T/C [23] of 103% and a viability, T/C [24] of 94.2%.

CC1COCCN1c1cc(-c2ccnn2C)c2ccnc(-c3ccn[nH]3)c2n1 (stereo unspecified) + Cc1cccc(N(C)C(=O)C2C(O)CCN2c2nc(C)cc(C(F)(F)F)c2C#N)c1 showed a pIC50 (second compound 0.0316 µM) of 6.78, a pIC50 (second compound 0.1 µM) of 6.86 and a pIC50 (second compound 0.316 µM) of 6.71. The pIC50 (second compound 1 µM) was 6.79, the pIC50 (second compound 3.16 µM) was 6.76 and the pIC50 (second compound 10 µM) was 6.78. The viability, T/C [1] was 99.9%, the viability, T/C [2] was 63.3% and the viability, T/C [3] was 35.3%. The viability, T/C [4] was 10.8%, the viability, T/C [25] was 10.2% and the viability, T/C [26] was 9.85%. The viability, T/C [5] was 96.1%, the viability, T/C [6] was 58.2% and the viability, T/C [7] was 28.4%. The viability, T/C [8] was 13.8%, the viability, T/C [27] was 8.45% and the viability, T/C [28] was 10.4%. It also gave a viability, T/C [9] of 97.5%, a viability, T/C [10] of 75.9% and a viability, T/C [11] of 32.9%. It also gave a viability, T/C [12] of 8.6%, a viability, T/C [29] of 9.15% and a viability, T/C [30] of 10.9%. For the same compound, the viability, T/C [13] was 105%, the viability, T/C [14] was 64.6% and the viability, T/C [15] was 31.4%. It also gave a viability, T/C [16] of 11.2%, a viability, T/C [31] of 8.14% and a viability, T/C [32] of 9.87%. For the same compound, the viability, T/C [17] was 87.2%, the viability, T/C [18] was 71.5% and the viability, T/C [19] was 26.9%. For the same compound, the viability, T/C [20] was 10.6%, the viability, T/C [33] was 8.05% and the viability, T/C [34] was 9.86%. The viability, T/C [21] was 92.5%, the viability, T/C [22] was 66.5% and the viability, T/C [23] was 28.7%. The viability, T/C [24] was 14.1%, the viability, T/C [35] was 9.35% and the viability, T/C [36] was 8.57%.

With CC1COCCN1c1cc(C2(S(C)(=N)=O)CC2)nc(-c2ccnc3[nH]ccc23)n1 (stereo unspecified) + Cc1cccc(N(C)C(=O)C2C(O)CCN2c2nc(C)cc(C(F)(F)F)c2C#N)c1 the pIC50 (second compound 0.0316 µM) was < 5.00, the pIC50 (second compound 0.1 µM) was < 5.00 and the pIC50 (second compound 0.316 µM) was < 5.00. The pIC50 (second compound 1 µM) was < 5.00, the pIC50 (second compound 3.16 µM) was 5.09 and the pIC50 (second compound 10 µM) was 5.31. It also gave a viability, T/C [1] of 99.8%, a viability, T/C [2] of 95.3% and a viability, T/C [3] of 95%. It also gave a viability, T/C [4] of 105%, a viability, T/C [25] of 93.3% and a viability, T/C [26] of 53%. For the same compound, the viability, T/C [5] was 112%, the viability, T/C [6] was 95.4% and the viability, T/C [7] was 97.1%. It also gave a viability, T/C [8] of 99.7%, a viability, T/C [27] of 82.6% and a viability, T/C [28] of 62.9%. It also gave a viability, T/C [9] of 102%, a viability, T/C [10] of 100% and a viability, T/C [11] of 104%. For the same compound, the viability, T/C [12] was 101%, the viability, T/C [29] was 77.5% and the viability, T/C [30] was 56.8%. For the same compound, the viability, T/C [13] was 96.5%, the viability, T/C [14] was 105% and the viability, T/C [15] was 99.3%. It also gave a viability, T/C [16] of 88.9%, a viability, T/C [31] of 86.9% and a viability, T/C [32] of 56%. For the same compound, the viability, T/C [17] was 101%, the viability, T/C [18] was 96.8% and the viability, T/C [19] was 103%. The viability, T/C [20] was 93.1%, the viability, T/C [33] was 85.7% and the viability, T/C [34] was 42.1%. It also gave a viability, T/C [21] of 98.5%, a viability, T/C [22] of 94% and a viability, T/C [23] of 96.8%. The viability, T/C [24] was 91.5%, the viability, T/C [35] was 71.4% and the viability, T/C [36] was 14.7%.
